As usually defined, the IC50 is the concentration at which inhibition is half-maximal.

The structures appear in SMILES notation.

The assay has as its target T1, AR-VP16 (Homo sapiens, UniProt P10275).
T1 sequence (P10275 560-920 limits assumed): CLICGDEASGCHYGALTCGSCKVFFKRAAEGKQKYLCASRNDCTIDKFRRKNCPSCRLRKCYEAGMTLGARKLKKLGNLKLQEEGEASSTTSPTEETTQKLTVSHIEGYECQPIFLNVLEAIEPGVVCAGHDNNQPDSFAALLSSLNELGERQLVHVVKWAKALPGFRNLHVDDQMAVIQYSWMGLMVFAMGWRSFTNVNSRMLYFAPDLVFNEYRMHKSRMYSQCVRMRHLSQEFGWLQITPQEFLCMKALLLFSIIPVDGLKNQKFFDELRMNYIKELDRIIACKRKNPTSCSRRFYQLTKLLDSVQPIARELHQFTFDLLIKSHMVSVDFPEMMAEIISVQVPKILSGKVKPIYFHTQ
In words: AR-VP16 DNA Binding Assay, antagonist mode (HepG2 cells, 0.1 nM R1881). The class given is cell-based. The procedure:
Cells were transiently transfected using Lipofectin (Life Technologies) according to the manufacturer's protocol. […] Transfected cells were incubated overnight then treated with ligand. […] For antagonist assays, the compounds were serially diluted and 50 μL of compound with RPMI supplemented with charcoal stripped serum plus methyltrienolone (R1881) were added to the cells. The final R1881 concentration used in the antagonist assays was 0.1 nM. Following 48 hour incubation the medium was removed and the cells were lysed in 40 μL of lysis buffer (25 mM Tris Phosphate, 2 mM CDTA, 10% Glycerol, 0.5% Triton X-100, 2 mM DTT).
As to `N#Cc1ncc(N2C(=O)C3(CCC3)N(c3ccc(OCc4ccncc4)c(F)c3)C2=S)cc1C(F)(F)F` [Compound 156, 5-(5-(3-Fluoro-4-(pyridin-4-ylmethoxy)phenyl)-8-oxo-6-thioxo-5,7-diazaspiro[3.4]octan-7-yl)-3-(trifluoromethyl)picolinonitrile], the IC50 was < 1000 nM.

In the case of `CC(C)CCNC(=O)c1ccc(N2C(=S)N(c3cnc(C#N)c(C(F)(F)F)c3)C(=O)C23CCC3)cc1F` [Compound 282, 4-(7-(6-Cyano-5-(trifluoromethyl)pyridin-3-yl)-8-oxo-6-thioxo-5,7-diazaspiro[3.4]octan-5-yl)-2-fluoro-N-isopentylbenzamide], the IC50 is < 1000 nM.

For `N#Cc1ncc(N2C(=O)C3(CCC3)N(c3ccc(OCCC4CCCCC4)c(F)c3)C2=S)cc1C(F)(F)F` [Compound 179, 5-(5-(4-(2-Cyclohexylethoxy)-3-fluorophenyl)-8-oxo-6-thioxo-5,7-diazaspiro[3.4]octan-7-yl)-3-(trifluoromethyl)picolinonitrile], the IC50 is < 1000 nM.

Consider `N#Cc1ncc(N2C(=O)C3(CCC3)N(c3ccc(OCCCOCc4ccccc4)c(F)c3)C2=S)cc1C(F)(F)F` [Compound 135, 5-(5-(4-(3-(Benzyloxy)propoxy)-3-fluorophenyl)-8-oxo-6-thioxo-5,7-diazaspiro[3.4]octan-7-yl)-3-(trifluoromethyl)picolinonitrile], for which the half-inhibitory concentration (IC50) was < 1000 nM.

For the compound `N#Cc1ncc(N2C(=O)C3(CCC3)N(c3cccc(CO)c3)C2=S)cc1C(F)(F)F` [Compound 67, 5-(5-(3-(Hydroxymethyl)phenyl)-8-oxo-6-thioxo-5,7-diazaspiro[3.4]octan-7-yl)-3-(trifluoromethyl)picolinonitrile], the half-inhibitory concentration (IC50) is < 1000 nM.

`Cc1cc(N2C(=O)C3(CCC3)N(c3ccc(N(C)C4CCN(C)CC4)cc3)C2=S)cnc1C#N` [Compound 102, 3-Methyl-5-(5-(4-(methyl(1-methylpiperidin-4-yl)amino)phenyl)-8-oxo-6-thioxo-5,7-diazaspiro[3.4]octan-7-yl)picolinonitrile]: the IC50 is > 1000 nM.

As for `N#Cc1ncc(N2C(=O)C3(CCC3)N(c3ccc(C(=O)NCc4cccnc4)c(F)c3)C2=S)cc1C(F)(F)F` [Compound 265, 4-(7-(6-Cyano-5-(trifluoromethyl)pyridin-3-yl)-8-oxo-6-thioxo-5,7-diazaspiro[3.4]octan-5-yl)-2-fluoro-N-(pyridin-3-ylmethyl)benzamide], the IC50 was < 1000 nM.

For `CNC(=O)c1ccc(N2C(=S)N(c3cnc(C#N)c4ccccc34)C(=O)C23CCC3)cc1F` [Compound 66, 4-(7-(1-Cyanoisoquinolin-4-yl)-8-oxo-6-thioxo-5,7-diazaspiro[3.4]octan-5-yl)-2-fluoro-N-methylbenzamide], the IC50 was < 1000 nM.

As for `N#Cc1ncc(N2C(=O)C3(CCC3)N(c3ccc(OCc4ccccn4)c(F)c3)C2=S)cc1C(F)(F)F` [Compound 147, 5-(5-(3-Fluoro-4-(pyridin-2-ylmethoxy)phenyl)-8-oxo-6-thioxo-5,7-diazaspiro[3.4]octan-7-yl)-3-(trifluoromethyl)picolinonitrile], the IC50 was < 1000 nM.

Regarding `CNC(=O)c1ccc(N2C(=S)N(c3cnc(C#N)c(Cl)c3)C(=O)C23CCC3)cc1F` [Compound 58, 4-(7-(5-Chloro-6-cyanopyridin-3-yl)-8-oxo-6-thioxo-5,7-diazaspiro[3.4]octan-5-yl)-2-fluoro-N-methylbenzamide], the IC50 was < 1000 nM.

As to `CNC(=O)CCCc1ccc(N2C(=S)N(c3cnc(C#N)c(C(F)(F)F)c3)C(=O)C23CCC3)cc1` [Compound 230, 4-(4-(7-(6-Cyano-5-(trifluoromethyl)pyridin-3-yl)-8-oxo-6-thioxo-5,7-diazaspiro[3.4]octan-5-yl)phenyl)-N-methylbutanamide], the 50% inhibitory concentration (IC50) was < 1000 nM.

For the compound `Cc1cc(N2C(=O)C3(CCC3)N(c3ccc(C(=O)NCc4ccccc4)c(F)c3)C2=S)cnc1C#N` [Compound 273, N-Benzyl-4-(7-(6-cyano-5-methylpyridin-3-yl)-8-oxo-6-thioxo-5,7-diazaspiro[3.4]octan-5-yl)-2-fluorobenzamide], the IC50 was < 1000 nM.

On to `Cc1cc(N2C(=O)C3(CCC3)N(c3ccc(C(=O)Nc4nccs4)c(F)c3)C2=S)cnc1C#N` [Compound 301, 4-(7-(6-Cyano-5-methylpyridin-3-yl)-8-oxo-6-thioxo-5,7-diazaspiro[3.4]octan-5-yl)-2-fluoro-N-(thiazol-2-yl)benzamide], for which the IC50 is < 1000 nM.

As for `Cc1cc(N2C(=O)C3(CCC3)N(c3ccc(C(=O)Nc4ccnn4C)c(F)c3)C2=S)cnc1C#N` [Compound 302, 4-(7-(6-Cyano-5-methylpyridin-3-yl)-8-oxo-6-thioxo-5,7-diazaspiro[3.4]octan-5-yl)-2-fluoro-N-(1-methyl-1H-pyrazol-5-yl)benzamide], the concentration for half-maximal inhibition (IC50) is < 1000 nM.

For `N#Cc1ncc(N2C(=O)C3(CCC3)N(c3ccc(OCc4cccnc4)c(F)c3)C2=S)cc1C(F)(F)F` [Compound 148, 5-(5-(3-Fluoro-4-(pyridin-3-ylmethoxy)phenyl)-8-oxo-6-thioxo-5,7-diazaspiro[3.4]octan-7-yl)-3-(trifluoromethyl)picolinonitrile], the IC50 is < 1000 nM.

With `Cc1cc(N2C(=O)C3(CCC3)N(c3ccc(OC4CCOCC4)cc3)C2=S)cnc1C#N` [Compound 194, 3-Methyl-5-(8-oxo-5-(4-((tetrahydro-2H-pyran-4-yl)oxy)phenyl)-6-thioxo-5,7-diazaspiro[3.4]octan-7-yl)picolinonitrile], the half-maximal inhibitory concentration (IC50) is < 1000 nM.

`N#Cc1ncc(N2C(=O)C3(CCC3)N(C3CCCCC3)C2=S)cc1C(F)(F)F` [Compound 53, 5-(5-Cyclohexyl-8-oxo-6-thioxo-5,7-diazaspiro[3.4]octan-7-yl)-3-(trifluoromethyl)picolinonitrile]: the IC50 is < 1000 nM.

As for `CC(C)(C)NC(=O)c1ccc(N2C(=S)N(c3cnc(C#N)c(C(F)(F)F)c3)C(=O)C23CCC3)cc1F` [Compound 286, N-(tert-Butyl)-4-(7-(6-cyano-5-(trifluoromethyl)pyridin-3-yl)-8-oxo-6-thioxo-5,7-diazaspiro[3.4]octan-5-yl)-2-fluorobenzamide], the IC50 is < 1000 nM.

As to `Cc1ccc(NC(=O)c2ccc(N3C(=S)N(c4cnc(C#N)c(C)c4)C(=O)C34CCC4)cc2F)cn1` [Compound 304, 4-(7-(6-Cyano-5-methylpyridin-3-yl)-8-oxo-6-thioxo-5,7-diazaspiro[3.4]octan-5-yl)-2-fluoro-N-(6-methylpyridin-3-yl)benzamide], the half-maximal inhibitory concentration (IC50) is < 1000 nM.

For the compound `CNC(=O)c1ccc(N2C(=S)N(c3ccc(C#N)c4ccccc34)C(=O)C23CCC3)cc1F` [Compound 95, 4-(7-(4-Cyanonaphthalen-1-yl)-8-oxo-6-thioxo-5,7-diazaspiro[3.4]octan-5-yl)-2-fluoro-N-methylbenzamide], the 50% inhibitory concentration (IC50) is < 1000 nM.

For `N#Cc1ncc(N2C(=O)C3(CCC3)N(c3cccc4ccccc34)C2=S)cc1C(F)(F)F` [Compound 110, 5-(5-(Naphthalen-1-yl)-8-oxo-6-thioxo-5,7-diazaspiro[3.4]octan-7-yl)-3-(trifluoromethyl)picolinonitrile], the concentration for half-maximal inhibition (IC50) is < 1000 nM.

Regarding `Cc1ccc(N2C(=S)N(c3ccc4nnc(C(F)(F)F)n4n3)C(=O)C23CCC3)cc1` [Compound 30, 6-Thioxo-5-(p-tolyl)-7-(3-(trifluoromethyl)-[1,2,4]triazolo[4,3-b]pyridazin-6-yl)-5,7-diazaspiro[3.4]octan-8-one], the half-maximal inhibitory concentration (IC50) was < 1000 nM.

Values taken from US9108944B2, “Androgen receptor modulators and uses thereof” (ARAGON PHARMACEUTICALS, INC., priority 2010, dated 2015).
